From patent publication US6150414A, “Compositions and methods for treating viral infections” (priority 1992, dated 2000)
“And” between values parts separate entries of the source, which are not always exact repeats. Equal values may be shown once.

Experiments:
[1] = Antiviral activity of hypericin as a function of frequency of treatment in mouse studies; type: in vivo
Description: The present inventors have also discovered that the antiviral activity of hypericin is a function of the frequency of treatment. […] While the foregoing observations in mice may not be applicable to other mammals or humans, those skilled in the art will appreciate that the frequency of treatment is subject to optimization, which can be determined by routine experimentation according to methods well known in the art, e.g. by establishing a matrix of dosage and frequency and assigning a group of experimental subjects to each point of the matrix. Design of this experiment should preferably also take into account the tissue accumulation properties of PAC compounds.

[2] = system: Friend Leukemia Virus; assay: In vivo inhibition of Friend Leukemia Virus splenomegaly, intravenous 1-2 hours post infection (Example 10); set-up: species or system mice; conditions: Mus musculus, read-out: EC50 for FV-induced splenomegaly
Description: (§1) (3) In vivo inhibition of Friend Leukemia Virus Splenomegaly performed as described in Example 1 above except that the compounds were administered intravenously 1-2 hours post infection.
(§2) The results presented above in Table IX are presented as EC50 concentrations. These are the effective concentrations which inhibit 50% of the viruses in micromolar concentrations.

[3] = biological target: T1, Radiation Leukemia Virus reverse transcriptase (Radiation murine leukemia virus, UniProt P11227); assay: Radiation Leukemia Virus reverse transcriptase assay, supernatants from infected AQR cells (Examples 4 and 9); type: biochemical; conditions: Table VI; for CPM: replicate, listed as Hy
T1 construct: the reverse transcriptase of Radiation Leukemia Virus; endogenous in cells
In short: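 Supernatants from AQR cells chronically infected with RadLV were incubated 30 min on ice with the test compound (hypericin, protohypericin or HHA). Virus was pelleted at 100,000×g for 1 h at 4 °C, and the pellet was assayed for reverse transcriptase activity.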

[4] = system: virus budding in virus-producing cells; assay: In vitro inhibition of virus budding: production of defective budded virions (Example 10); type: cell-based; conditions: in vitro; Table IX; read-out: EC50 for production of defective budded virions
Description: as §2

[5] = system: retroviruses (virions); assay: Direct inactivation of retroviruses (virions) in vitro (Example 10); type: biochemical, Radiation Leukemia Virus; conditions: Table IX
In short: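 RadLV-containing supernatants from chronically infected B10.T(6R) cells incubated 30 min on ice with hypericin or protohypericin. Virions then pelleted at 100,000×g for 1 h at 4° C and assayed for reverse transcriptase activity. EC50 is the micromolar concentration inhibiting 50% of virus.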

[6] = system: Friend Leukemia Virus; assay: Inhibition of Friend Leukemia Virus-induced splenomegaly in mice, compounds intraperitoneally 24 hours after virus (Example 1(a)); type: in vivo, BALB/c mice; conditions: dose 150 mg (so in the source); Table III second set
In short: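 BALB/c mice inoculated i.v. with 10^6 FFU Friend virus (spleen homogenate); compounds given i.p. 24 h later at 100 μg once, or 50, 100, 200 μg or 2×100 μg (second dose 24–48 h after first), two mice per group. Spleens weighed at day 10; percent inhibition from average spleen weights relative to negative and positive controls.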

[7] = system: retroviruses; assay: Comparison over two in vitro and one in vivo biological assays (Example 10); conditions: Example 10
Description: In order to investigate the structural features of hypericin which are essential for antiretroviral activity, numerous analogs and precursors of hypericin were examined for activity in two in vitro and one in vivo biological assay.
(1) Direct inactivation of retroviruses in vitro, performed as in Example 3 above;
as §1

Cc1cc(O)c2c(=O)c3c(O)cc(O)c4c5c(O)cc(O)c6c(=O)c7c(O)cc(C)c8c1c2c(c34)c(c78)c65 [hypericin, Hypericin]
antiviral activity vs frequency of treatment ([1]; 10 micrograms every day for ten days): less effective than even a single 10-microgram dose
antiviral activity vs frequency of treatment ([1]; 10 micrograms once a week): as effective as the single 10-microgram dose
antiviral activity vs dose ([1]; single dose of ten micrograms per mouse): less effective than a single dose of 100 micrograms per mouse
EC50 [2]: 120 nM
Average CPM ([3]; 0.4 micrograms): 2,489 CPM
Average percent inhibition ([3]; 0.4 micrograms): 99.4%
CPM ([3]; 0.4 micrograms): 1,700 CPM and 3,278 CPM
Average CPM ([3]; 2 micrograms): 9,986 CPM
Average percent inhibition ([3]; 2 micrograms): 97.8%
CPM ([3]; 2 micrograms): 14,474 CPM and 5,498 CPM
Average CPM ([3]; 10 micrograms): 11,588 CPM
Average percent inhibition ([3]; 10 micrograms): 97.4%
CPM ([3]; 10 micrograms): 9,288 CPM and 13,888 CPM
Average CPM ([3]; 50 micrograms): 31,818 CPM
Average percent inhibition ([3]; 50 micrograms): 92.9%
CPM ([3]; 50 micrograms): 33,948 CPM and 29,688 CPM
Average CPM ([3]; 100 micrograms): 31,347 CPM
Average percent inhibition ([3]; 100 micrograms): 93.0%
CPM ([3]; 100 micrograms): 28,946 CPM and 33,748 CPM
EC50 [4]: 200 nM
EC50 [5]: 60 nM
Average Spleen Weight [6]: 0.7707
activity across assays [7]: high degree of activity in a more than one assay
